Like-named read-outs stand apart in the source and are kept apart here.

The test system of assay [1] is purified esterase. Description: Hydrolysis activity of the esterase to substrates, pH-stat (Example 6, Table 1). It counts as biochemical, Bacillus sp. DC-1. As to conditions: 100 mM Tris-HCl pH 9.0, emulsified with 0.2% polyvinyl alcohol, ethyl butyrate = 100. On the procedure:
(§1) Also, the hydrolysis activities of the present esterase to choline ester, cholesterol ester, and thiol ester were determined.
(§2) In Table 1, the hydrolysis activity is expressed in relative activity (%) based on the hydrolysis activity of the present esterase to ethyl butyrate taken as 100. Each substrate was used after it was emulsified with 0.2% polyvinyl alcohol. In Table 2, hydrolysis activities to choline ester and cholesterol ester were observed by the use of the Cholinesterase B-test (Wako) and Free-Cholesterol B-test (Wako), respectively, and hydrolysis activity to thiol ester was based on increase in absorbance at 412 nm with a spectrophotometer in which glutathione, a standard substance, and 5,5'-dithiobis(2-nitrobenzoic acid) (DTNB) were employed. The activity is expressed in mole numbers of choline, cholesterol, and CoA to be liberated per minute.

Assay [2] concerns purified esterase. Kind of assay: Hydrolysis activity to thiol ester, DTNB absorbance at 412 nm (Table 2). The format is biochemical, Bacillus sp. DC-1. As to conditions: for Activity: substrate 50 μM, CoA liberated per minute; for Substrate specificity (esterase active or not): summary of properties, thiol esters. The method, then:
as §1, §2

The test system of assay [3] is purified esterase. Kind of assay: Hydrolysis activity to cholesterol ester, Free-Cholesterol B-test (Table 2). The format is biochemical, Bacillus sp. DC-1. As to conditions: substrate 1,300 μM; cholesterol liberated per minute. On the procedure: as §1, §2
Assay [4] relates to purified esterase. The format is biochemical, Bacillus sp. DC-1.
Assay [5] concerns esterase from Pseudomonas aeruginosa. Conditions: cited from earlier work.

`CCCCCCCCCCCCCCCC(=O)OCC(CO)OC(=O)CCCCCCCCCCCCCCC` (centres unmarked) [1,2-dipalmitoyl glycerol]: the “Relative activity (%)” value in the assay on purified esterase [1] (substrate 5 mM) was determined as 0.2%. With `CCCCCCCCCCCCCCCC(=O)OCC(O)COC(=O)CCCCCCCCCCCCCCC` [1,3-dipalmitoyl glycerol], the “Relative activity (%)” value with purified esterase [1] (substrate 2 mM) is listed as 0%. Turning to `CCCCCCCCCCCCCCCC(=O)OCC(O)CO` (centres unmarked) [1-palmitoyl glycerol], the “Relative activity (%)” value in the assay on purified esterase [1] (substrate 5 mM) is on record as 3.0%. With `CC(=O)SCCNC(=O)CCNC(=O)[C@H](O)C(C)(C)COP(=O)(O)OP(=O)(O)OC[C@H]1O[C@@H](n2cnc3c(N)ncnc32)[C@H](O)[C@@H]1OP(=O)(O)O` [Acetyl CoA], in the assay with purified esterase [2], the “Activity” value amounted to 0 nmol/min and the “Substrate specificity (esterase active or not)” value was “not”. Take `CC(=O)O[C@H]1CC[C@@]2(C)C(=CC[C@H]3[C@@H]4CC[C@H]([C@H](C)CCCC(C)C)[C@@]4(C)CC[C@@H]32)C1` [Cholesterol acetate]: in the assay on purified esterase [3], the “Activity” value is listed as 0 nmol/min. The same measure, in the same setting: next, `CCCCC/C=C\C/C=C\CCCCCCCC(=O)O[C@H]1CC[C@@]2(C)C(=CC[C@H]3[C@@H]4CC[C@H]([C@H](C)CCCC(C)C)[C@@]4(C)CC[C@@H]32)C1` [Cholesterol linolate]: 0 nmol/min. Consider `CCCC(=O)OCC` [Ethyl butyrate], for which the “Relative activity (%)” value in the assay with purified esterase [1] (substrate 20 mM) was determined as 100.0%. For the compound `CCCCCCCCCCCCCCCC(=O)OC(C)C` [Isopropyl palmitate], the “Relative activity (%)” value in the assay with purified esterase [1] (substrate 20 mM) turned out to be 1.7%. On to `O=S(=O)(F)Cc1ccccc1` [PMSF, phenylmethylsulfonylfluoride], for which the “Inactivation of the esterase” value in the assay on purified esterase [4] was “Completely inactivated”. For the same compound, in the assay on purified esterase [4] (80 µM), the “Remaining activity(%)” value turned out to be 1.5%. On to `CCCCCCCCCCCCCCCC(=O)SCCNC(=O)CCNC(=O)[C@H](O)C(C)(C)COP(=O)(O)OP(=O)(O)OC[C@H]1O[C@@H](n2cnc3c(N)ncnc32)[C@H](O)[C@@H]1OP(=O)(O)O` [Palmitoyl CoA], for which, in the assay with purified esterase [2], the “Activity” value amounted to 5.4 nmol/min and the “Substrate specificity (esterase active or not)” value is “Active”.

Consider `C[C@H](CCC(=O)O)[C@H]1CC[C@H]2[C@@H]3CC[C@@H]4C[C@H](O)CC[C@]4(C)[C@H]3C[C@H](O)[C@]12C` [Sodium deoxycholate], for which the “Remaining activity(%)” value in the assay with purified esterase [4] stood at 76.2%. The Decrease of activity result with purified esterase [4] (purified esterase, pH 9, 10 min, 1000 µM) is “about 25%”. With `CCCCCCCCCCCCOS(=O)(=O)[O-].[Na+]` [Sodium lauryl sulfate], the “Inactivation of the esterase from Pseudomonas aeruginosa” value in assay [5] was “not inactivated”. Moreover, in the assay with purified esterase [4], the “Remaining activity(%)” value is 32.2%. Moreover, in the assay on purified esterase [4] (purified esterase, pH 9, 10 min, 5000 µM), the “Decrease of activity (inactivation)” value is listed as “about 70%”.

Consider `CC(=O)OCC(COC(C)=O)OC(C)=O` [Triacetin], for which, in the assay on purified esterase [1] (substrate 20 mM), the “Relative activity (%)” value amounted to 14.1%. Still for that read-out and setting: the value for `CCCC(=O)OCC(COC(=O)CCC)OC(=O)CCC` [Tributylin] was 56.6%. As to `CCCCCCCCCCCCCCCC(=O)OCC(COC(=O)CCCCCCCCCCCCCCC)OC(=O)CCCCCCCCCCCCCCC` [Tripalmitin], the “Relative activity (%)” value in the assay on purified esterase [1] (substrate 6 mM) worked out at 1.1%.

With Tritonx-100, the “Remaining activity(%)” value in the assay with purified esterase [4] is on record as 101.5%.

As to Tween-80, the “Remaining activity(%)” value with purified esterase [4] stood at 130.8%.

The values are drawn from US4904593A (priority 1986, dated 1990).
